# According to ChEMBL document CHEMBL1201862, “PubChem BioAssay data set” (2004):
#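 Protocol summary: plate cells (96-well), add compound at 5 concentrations, incubate 48 h, interpolate endpoints linearly. GI50 marks 50% less growth.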 Active and inactive are the calls of the source. No stated cut-off is given here; in the data, active = GI50 up to about 1.1 µM and inactive = higher.
# How the values were obtained:
# Assay in all cases: inhibition of tumour cell growth, NCI panel, 48 h
# [1] = tested on: TK-10
# [2] = tested on: DU-145
# [3] = tested on: MDA-MB-435
# [4] = tested on: HT-29
# [5] = tested on: RXF 393
# [6] = tested on: A498
# [7] = tested on: HOP-62
# [8] = tested on: CAKI-1
# [9] = tested on: SF-539
# [10] = tested on: ACHN
# [11] = tested on: NCI-H226
# [12] = tested on: K562
# [13] = tested on: SF-295
# [14] = tested on: SK-MEL-5
# [15] = tested on: HCT-116
# [16] = tested on: UACC-62
# [17] = tested on: SK-MEL-28
# [18] = tested on: OVCAR-4
# [19] = tested on: EKVX
# [20] = tested on: UACC-257
# [21] = tested on: UO-31
# [22] = tested on: RPMI-8226
# [23] = tested on: BT-549
# [24] = tested on: OVCAR-8
# [25] = tested on: SNB-19
# [26] = tested on: LOX IMVI
# [27] = tested on: SN12C
# [28] = tested on: NCI/ADR-RES
# [29] = tested on: KM12
# [30] = tested on: HCT-15
# [31] = tested on: MDA-N
# [32] = tested on: U-251
# [33] = tested on: MCF7
# [34] = tested on: NCI-H23
# [35] = tested on: OVCAR-3
# [36] = tested on: NCI-H460
# [37] = tested on: SNB-75
# [38] = tested on: SK-OV-3
# [39] = tested on: SF-268
# [40] = tested on: MDA-MB-231
# [41] = tested on: A549
# [42] = tested on: IGROV-1
# [43] = tested on: HCC 2998
# [44] = tested on: SR
# [45] = tested on: MOLT-4
# [46] = tested on: COLO 205
# [47] = tested on: T47D
# [48] = tested on: CCRF-CEM
# [49] = tested on: Malme-3M
# [50] = tested on: 786-0
# [51] = tested on: HL-60
# [52] = tested on: OVCAR-5
# [53] = tested on: SW-620
structure (smiles),measurement,setting,value
CC(=O)OCC1OC(SC2OC(COC(C)=O)C(OC(C)=O)C(OC(C)=O)C2OC(C)=O)C(OC(C)=O)C(OC(C)=O)C1OC(C)=O (stereo not drawn),GI50,[1],> 100 µM (inactive)
same,GI50,[2],> 100 µM (inactive)
same,GI50,[3],> 100 µM (inactive)
same,GI50,[4],> 100 µM (inactive)
same,GI50,[5],> 100 µM (inactive)
same,GI50,[6],54.1 µM (inactive)
same,GI50,[7],> 100 µM (inactive)
same,GI50,[8],> 100 µM (inactive)
same,GI50,[9],> 100 µM (inactive)
same,GI50,[10],52.5 µM (inactive)
same,GI50,[11],> 100 µM (inactive)
same,GI50,[12],> 100 µM (inactive)
same,GI50,[13],> 100 µM (inactive)
same,GI50,[14],> 100 µM (inactive)
same,GI50,[15],> 100 µM (inactive)
same,GI50,[16],> 100 µM (inactive)
same,GI50,[17],> 100 µM (inactive)
same,GI50,[18],> 100 µM (inactive)
same,GI50,[19],> 100 µM (inactive)
same,GI50,[20],> 100 µM (inactive)
same,GI50,[21],> 100 µM (inactive)
same,GI50,[22],> 100 µM (inactive)
same,GI50,[23],> 100 µM (inactive)
same,GI50,[24],> 100 µM (inactive)
same,GI50,[25],> 100 µM (inactive)
same,GI50,[26],> 100 µM (inactive)
same,GI50,[27],> 100 µM (inactive)
same,GI50,[28],> 100 µM (inactive)
same,GI50,[29],> 100 µM (inactive)
same,GI50,[30],> 100 µM
same,GI50,[31],> 100 µM (inactive)
same,GI50,[32],> 100 µM (inactive)
same,GI50,[33],> 100 µM (inactive)
same,GI50,[34],> 100 µM (inactive)
same,GI50,[35],> 100 µM (inactive)
same,GI50,[36],> 100 µM (inactive)
same,GI50,[37],> 100 µM (inactive)
same,GI50,[38],> 100 µM (inactive)
same,GI50,[39],> 100 µM (inactive)
same,GI50,[40],> 100 µM (inactive)
same,GI50,[41],> 100 µM (inactive)
same,GI50,[42],> 100 µM (inactive)
same,GI50,[43],> 100 µM (inactive)
same,GI50,[44],> 100 µM (inactive)
same,GI50,[45],> 100 µM (inactive)
same,GI50,[46],> 100 µM (inactive)
same,GI50,[47],> 100 µM (inactive)
same,GI50,[48],> 100 µM (inactive)
same,GI50,[49],> 100 µM (inactive)
same,GI50,[50],> 100 µM (inactive)
same,GI50,[51],> 100 µM (inactive)
same,GI50,[52],> 100 µM (inactive)
same,GI50,[53],> 100 µM (inactive)
